Measured values reported in ChEMBL document CHEMBL1201862, “PubChem BioAssay data set” (2004).
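Where inhibition never reached the appropriate level, the endpoint shown equals the highest concentration tested. Otherwise, values were interpolated linearly from a five-concentration, 48-hour dose response in 96-well plates. Abbreviation: GI50, concentration required for 50% inhibition of growth.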 Calls of active or inactive are those of the source. Cut-off read from the data, not from the text of the source: active = GI50 up to about 1.1 µM and inactive = higher.

What was measured:
Assay in all cases: NCI anticancer screen, dose series, 48 h
[1] = system: OVCAR-8
[2] = system: HCC 2998
[3] = system: CAKI-1
[4] = system: ACHN
[5] = system: UACC-257
[6] = system: RPMI-8226
[7] = system: MCF7
[8] = system: NCI/ADR-RES
[9] = system: NCI-H226
[10] = system: Malme-3M
[11] = system: A549
[12] = system: Hs-578T
[13] = system: SR
[14] = system: TK-10
[15] = system: UO-31
[16] = system: SK-MEL-2
[17] = system: SF-268
[18] = system: MOLT-4
[19] = system: NCI-H460
[20] = system: OVCAR-4

| SMILES | GI50 [1] | GI50 [2] | GI50 [3] | GI50 [4] | GI50 [5] | GI50 [6] | GI50 [7] | GI50 [8] | GI50 [9] | GI50 [10] | GI50 [11] | GI50 [12] | GI50 [13] | GI50 [14] | GI50 [15] | GI50 [16] | GI50 [17] | GI50 [18] | GI50 [19] | GI50 [20] |
| --- | --- | --- | --- | --- | --- | --- | --- | --- | --- | --- | --- | --- | --- | --- | --- | --- | --- | --- | --- | --- |
| O=C(Nc1ccccc1C(=O)Nc1nccs1)c1ccccc1 | 54.5 µM (inactive) | 13.5 µM (inactive) | 21.3 µM (inactive) | 14.3 µM (inactive) | 31 µM (inactive) | 6.65 µM (inactive) | 12.8 µM (inactive) | 6.17 µM (inactive) | 32.5 µM (inactive) | 10.5 µM (inactive) | 12.4 µM (inactive) | 23.9 µM (inactive) | 7.31 µM (inactive) | 25.6 µM (inactive) | 7.89 µM (inactive) | 5.22 µM (inactive) | 14.6 µM (inactive) | 3.44 µM (inactive) | 3.81 µM (inactive) | – |
| COc1cc(Br)c(OC)c2c(OC)cc(C)cc12 | > 100 µM (inactive) | > 100 µM (inactive) | – | > 100 µM (inactive) | > 100 µM (inactive) | 54.5 µM (inactive) | > 100 µM (inactive) | > 100 µM (inactive) | > 100 µM (inactive) | > 100 µM (inactive) | – | 52 µM (inactive) | 0.731 µM (active) | > 100 µM (inactive) | > 100 µM (inactive) | > 100 µM (inactive) | > 100 µM (inactive) | 20 µM (inactive) | > 100 µM (inactive) | – |
| O=C(O)c1ccc(Nc2nc3ccc(C(F)(F)F)cc3nc2-c2ccccc2)cc1 | 30.9 µM (inactive) | 14.5 µM (inactive) | 44.6 µM (inactive) | 32.9 µM (inactive) | 70 µM (inactive) | 30.1 µM (inactive) | 15 µM (inactive) | 28.8 µM (inactive) | 46.1 µM (inactive) | 33.2 µM (inactive) | 27 µM (inactive) | 46.3 µM (inactive) | 28.1 µM (inactive) | 23.1 µM (inactive) | 23.9 µM (inactive) | – | 40.3 µM (inactive) | 30 µM (inactive) | 29.6 µM (inactive) | – |
| C[C@]12CC(c3ccccc3O1)C(C#N)C(=O)N2 (some centres not stated) | > 100 µM (inactive) | > 100 µM (inactive) | > 100 µM (inactive) | > 100 µM (inactive) | > 100 µM (inactive) | > 100 µM (inactive) | > 100 µM (inactive) | > 100 µM (inactive) | > 100 µM (inactive) | > 100 µM (inactive) | > 100 µM (inactive) | > 100 µM (inactive) | > 100 µM (inactive) | – | – | > 100 µM (inactive) | > 100 µM (inactive) | > 100 µM (inactive) | > 100 µM (inactive) | > 100 µM (inactive) |
| Cc1c2c(n(Cc3ccccn3)c1C)NN=C(C#N)S2(=O)=O | > 100 µM (inactive) | > 100 µM (inactive) | > 100 µM (inactive) | > 100 µM (inactive) | > 100 µM (inactive) | – | > 100 µM (inactive) | > 100 µM (inactive) | > 100 µM (inactive) | – | > 100 µM (inactive) | > 100 µM (inactive) | > 100 µM (inactive) | > 100 µM (inactive) | > 100 µM (inactive) | > 100 µM (inactive) | > 100 µM (inactive) | > 100 µM (inactive) | > 100 µM (inactive) | > 100 µM (inactive) |
| Cc1[nH]c(=O)[nH]c(=O)c1N(CCF)CCCl [FLUORODOPAN] | – | 353 µM (inactive) | 181 µM (inactive) | 190 µM (inactive) | 443 µM (inactive) | – | 256 µM (inactive) | 240 µM (inactive) | 560 µM (inactive) | 349 µM (inactive) | 265 µM (inactive) | 635 µM (inactive) | 79.6 µM (inactive) | 495 µM (inactive) | – | 432 µM (inactive) | 290 µM (inactive) | – | – | 353 µM (inactive) |
| O=C(CNc1cccc([N+](=O)[O-])c1)Nn1c(-c2ccccc2)nc2ccccc2c1=O | 1.59 µM (inactive) | 1.49 µM (inactive) | – | 1.4 µM (inactive) | 2.15 µM (inactive) | 0.478 µM (active) | 0.389 µM (active) | 0.282 µM (active) | 0.2 µM (active) | 0.973 µM (active) | 1.74 µM (inactive) | 0.581 µM (active) | 0.271 µM (active) | 0.363 µM (active) | 0.743 µM (active) | – | 1.69 µM (inactive) | 0.246 µM (active) | 0.555 µM (active) | 2.18 µM (inactive) |
| COC[C@H](Cc1ccccc1)/N=C/c1ccccc1 | > 100 µM (inactive) | > 100 µM (inactive) | > 100 µM (inactive) | > 100 µM (inactive) | > 100 µM (inactive) | > 100 µM (inactive) | > 100 µM (inactive) | > 100 µM (inactive) | – | > 100 µM (inactive) | > 100 µM (inactive) | > 100 µM (inactive) | > 100 µM (inactive) | > 100 µM (inactive) | > 100 µM (inactive) | > 100 µM (inactive) | > 100 µM (inactive) | > 100 µM (inactive) | > 100 µM (inactive) | > 100 µM (inactive) |
